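Values below derive from 48-hour exposures of cells grown in 96-well plates, with endpoints linearly interpolated between the two concentrations bracketing the appropriate inhibition level. GI50 marks 50% less growth. TGI denotes the concentration required for complete inhibition of growth.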
Key:
Experiment in all cases: inhibition of tumour cell growth, NCI panel, 48 h
A549 NSCLC = tested on: A549 NSCLC
CAKI-1 renal = tested on: CAKI-1 renal
IGROV1 ovarian = tested on: IGROV1 ovarian
K-562 leukemia = tested on: K-562 leukemia
MOLT-4 leukemia = tested on: MOLT-4 leukemia
OVCAR-8 ovarian = tested on: OVCAR-8 ovarian
SK-MEL-28 melanoma = tested on: SK-MEL-28 melanoma
SN12C renal = tested on: SN12C renal
SNB-19 CNS = tested on: SNB-19 CNS
UO-31 renal = tested on: UO-31 renal

## C/C(=N\NC(=S)N(C)C)c1nc2ncccc2[nH]1
A549 NSCLC
  TGI: > 100 µM
CAKI-1 renal
  TGI: 3.75 µM
IGROV1 ovarian
  TGI: 70 µM
K-562 leukemia
  TGI: > 100 µM
MOLT-4 leukemia
  TGI: 9.86 µM
OVCAR-8 ovarian
  TGI: > 100 µM
SK-MEL-28 melanoma
  TGI: > 100 µM
SN12C renal
  TGI: > 100 µM
SNB-19 CNS
  TGI: 36.1 µM
UO-31 renal
  TGI: 1.89 µM

## NNC(=O)CCSc1ccccc1
A549 NSCLC
  TGI: > 100 µM
CAKI-1 renal
  TGI: > 100 µM
IGROV1 ovarian
  TGI: > 100 µM
K-562 leukemia
  TGI: > 100 µM
MOLT-4 leukemia
  TGI: > 100 µM
OVCAR-8 ovarian
  TGI: > 100 µM
SK-MEL-28 melanoma
  TGI: > 100 µM
SN12C renal
  TGI: > 100 µM
SNB-19 CNS
  TGI: > 100 µM
UO-31 renal
  TGI: > 100 µM

## CCCn1cc2c(SC)nc(SC)nc2n1
A549 NSCLC
  TGI: > 100 µM
CAKI-1 renal
  TGI: > 100 µM
IGROV1 ovarian
  TGI: > 100 µM
K-562 leukemia
  TGI: > 100 µM
MOLT-4 leukemia
  TGI: > 100 µM
OVCAR-8 ovarian
  TGI: > 100 µM
SK-MEL-28 melanoma
  TGI: > 100 µM
SN12C renal
  TGI: > 100 µM
SNB-19 CNS
  TGI: > 100 µM
UO-31 renal
  TGI: > 100 µM

## COc1ccc(C(O)(c2ccccc2)c2nccc3ccccc23)cc1 (stereo unspecified)
A549 NSCLC
  TGI: > 100 µM
CAKI-1 renal
  TGI: > 100 µM
IGROV1 ovarian
  TGI: > 100 µM
K-562 leukemia
  TGI: > 100 µM
MOLT-4 leukemia
  TGI: 11.9 µM
OVCAR-8 ovarian
  TGI: > 100 µM
SK-MEL-28 melanoma
  TGI: > 100 µM
SN12C renal
  TGI: > 100 µM
SNB-19 CNS
  TGI: > 100 µM
UO-31 renal
  TGI: > 100 µM

## O=C(Nc1ccc(-n2cc(-c3ccncc3)c(-c3ccc(O)c(Cl)c3)n2)cc1)Nc1ccc(Cl)c(C(F)(F)F)c1
A549 NSCLC
  GI50: 3.6 µM
  TGI: 17.4 µM
CAKI-1 renal
  GI50: 3.17 µM
  TGI: 19.8 µM
IGROV1 ovarian
  GI50: 4.42 µM
  TGI: 30.3 µM
K-562 leukemia
  GI50: 3.89 µM
  TGI: 49.4 µM
MOLT-4 leukemia
  GI50: 3.18 µM
  TGI: 16.4 µM
OVCAR-8 ovarian
  GI50: 4.11 µM
  TGI: 21.3 µM
SK-MEL-28 melanoma
  GI50: 3.64 µM
  TGI: 15 µM
SN12C renal
  GI50: 4.28 µM
  TGI: 17.2 µM
SNB-19 CNS
  GI50: 5.06 µM
  TGI: 19 µM
UO-31 renal
  GI50: 3.01 µM
  TGI: 16.4 µM

## c1ccc(C(NC2=NCCO2)c2ccccc2)cc1
A549 NSCLC
  TGI: > 10 µM
CAKI-1 renal
  TGI: > 10 µM
IGROV1 ovarian
  TGI: > 10 µM
K-562 leukemia
  TGI: > 10 µM
MOLT-4 leukemia
  TGI: > 10 µM
OVCAR-8 ovarian
  TGI: > 10 µM
SK-MEL-28 melanoma
  TGI: > 10 µM
SN12C renal
  TGI: > 10 µM
SNB-19 CNS
  TGI: > 10 µM
UO-31 renal
  TGI: > 10 µM

## O=C(O)CCc1nc2ccccc2[nH]1
A549 NSCLC
  TGI: > 100 µM
CAKI-1 renal
  TGI: > 100 µM
IGROV1 ovarian
  TGI: > 100 µM
K-562 leukemia
  TGI: > 100 µM
MOLT-4 leukemia
  TGI: > 100 µM
OVCAR-8 ovarian
  TGI: > 100 µM
SK-MEL-28 melanoma
  TGI: > 100 µM
SN12C renal
  TGI: > 100 µM
SNB-19 CNS
  TGI: > 100 µM
UO-31 renal
  TGI: > 100 µM

## OCCCNc1ncnc2[nH]ncc12
A549 NSCLC
  TGI: > 100 µM
CAKI-1 renal
  TGI: > 100 µM
IGROV1 ovarian
  TGI: > 100 µM
K-562 leukemia
  TGI: > 100 µM
MOLT-4 leukemia
  TGI: > 100 µM
OVCAR-8 ovarian
  TGI: > 100 µM
SK-MEL-28 melanoma
  TGI: > 100 µM
SN12C renal
  TGI: > 100 µM
SNB-19 CNS
  TGI: > 100 µM
UO-31 renal
  TGI: > 100 µM

## CCOC(=O)C(Cc1cn(C(C)=O)c2ccccc12)P(=O)(OCC)OCC (stereo unspecified)
A549 NSCLC
  TGI: > 100 µM
CAKI-1 renal
  TGI: > 100 µM
IGROV1 ovarian
  TGI: > 100 µM
K-562 leukemia
  TGI: > 100 µM
MOLT-4 leukemia
  TGI: > 100 µM
OVCAR-8 ovarian
  TGI: > 100 µM
SK-MEL-28 melanoma
  TGI: > 100 µM
SN12C renal
  TGI: > 100 µM
SNB-19 CNS
  TGI: > 100 µM
UO-31 renal
  TGI: > 100 µM

## C/C(=N\NC(=S)NCCCCNC(=S)N/N=C(\C)c1ccccn1)c1ccccc1
A549 NSCLC
  TGI: > 58 µM
CAKI-1 renal
  TGI: > 100 µM
IGROV1 ovarian
  TGI: > 28.8 µM
K-562 leukemia
  TGI: > 100 µM
MOLT-4 leukemia
  TGI: > 30.5 µM
OVCAR-8 ovarian
  TGI: 5.63 µM
SK-MEL-28 melanoma
  TGI: > 100 µM
SN12C renal
  TGI: 4.43 µM
SNB-19 CNS
  TGI: > 87.1 µM
UO-31 renal
  TGI: 13.1 µM

## Cc1[nH]c(=O)[nH]c(=O)c1/C=C/C(=O)NC(CO)CS(=O)Cc1ccccc1 (stereo unspecified)
A549 NSCLC
  TGI: > 300 µM
CAKI-1 renal
  TGI: > 300 µM
IGROV1 ovarian
  TGI: > 300 µM
K-562 leukemia
  TGI: > 300 µM
MOLT-4 leukemia
  TGI: > 300 µM
OVCAR-8 ovarian
  TGI: > 300 µM
SK-MEL-28 melanoma
  TGI: > 300 µM
SN12C renal
  TGI: > 300 µM
SNB-19 CNS
  TGI: > 300 µM
UO-31 renal
  TGI: > 300 µM

## CC(C)C(=O)CC(c1ccc(Cl)cc1)N1N=C(C(C)C)CC1c1ccc(Cl)cc1 (stereo unspecified)
A549 NSCLC
  TGI: > 100 µM
CAKI-1 renal
  TGI: > 94.9 µM
IGROV1 ovarian
  TGI: > 100 µM
K-562 leukemia
  TGI: > 100 µM
MOLT-4 leukemia
  GI50: 22.4 µM
  TGI: 83.4 µM
OVCAR-8 ovarian
  TGI: > 65.8 µM
SK-MEL-28 melanoma
  TGI: > 100 µM
SN12C renal
  TGI: > 100 µM
SNB-19 CNS
  TGI: > 100 µM
UO-31 renal
  TGI: > 100 µM

— PubChem BioAssay (NCI)
